Tested on: 422866-222-R5-J1-PDC spheroid viability
Experiment: Anticancer human tumor 422866-222-R5-J1-PDC patient-derived pancreatic adenocarcinoma cell line growth inhibition [CLK]
Conditions: spheroids with HUVEC and MSC; for IC50: curve of first compound; for viability, T/C: stronger effect = lower value
Excerpt: A high-throughput screen of multi-cell type tumor spheroids was designed to identify active combinations of […] and targeted small molecules. Complex spheroids include a stromal component modeled by human endothelial cells (HUVEC) and fibroblasts modeled by human mesenchymal stem cells (MSCs). The concentration ranges selected for each drug and investigational agent were based upon clinically achievable concentrations if the clinical Cmax of the agent was known.
Compounds. The drugs and investigational agents: cirtuvivint (SM08502; NSC835563), CC-671 (NSC850746), vemurafenib (NSC761431), tapotoclax (NSC804041), sotorasib (NSC818433), adagrasib (NSC831453), MRTX-1133 (NSC836407), BAY2416964 (NSC825713), copanlisib (NSC816437), inavolisib (NSC800729), abemaciclib (NSC768073), osimertinib (NSC779217), entinostat (NSC756642), eltanexor (KPT-8602, NSC794443), venetoclax (NSC766270), ceralasertib (NSC777638), bortezomib (NSC756655), olaparib (NSC753686), talazoparib (NSC767125), alisertib (NSC759677), peposertib (NSC802822), gemcitabine (NSC613327), 5-fluorouracil (NSC19893), SN-38 (NSC673596), oxaliplatin (NSC266046), paclitaxel (NSC125973), and doxorubicin (NSC123127), were obtained from the National Cancer Institute (NCI) Developmental Therapeutics Program Chemical Repository. The FDA-approved anticancer drug set is available from the Developmental Therapeutics Program at https://dtp.cancer.gov/organization/dscb/obtaining/available plates.htm. […] The stock solutions were prepared in dimethyl sulfoxide (DMSO, Sigma-Aldrich, St. Louis, MO, cat. D2650), except for the platinum complexes which were prepared in saline (Quality Biological, Gaithersburg, MD, cat. 114-055-101), at 800-fold the tested concentration and stored at -70 degrees C prior to their use. All drugs and investigational agents were tested over a range starting from a high concentration at or near the clinical Cmax and decreasing in half-log increments. If the clinical Cmax for an agent had not been determined, the highest concentration tested was 10 microM.
Cell Culture. All cells were maintained in an incubator at 37 degrees C and 5% CO2 with 95% humidity. The PDC lines were cultured according to standard operating procedures established by the NCI PDMR. Briefly, all PDCs were thawed and cultured in Matrigel-coated flasks prepared with a working solution of 1X Ham's F-12 nutrient mix, without supplementation (Invitrogen, Waltham, MA, cat. 11765054), 100 U/mL penicillin-streptomycin (Invitrogen, cat. 15140122), and 2.5% Matrigel (Corning Inc., Corning, NY, cat. 354248) for the first three passages. The 947758-054-R-J2-PDC line was cultured in 6B/Colon 1A media, which includes advanced DMEM/F-12 (Thermo Fisher Scientific, cat. 12634028), 10 mM HEPES (Thermo Fisher Scientific, cat. 15630080), 1X GlutaMAX supplement (Thermo Fisher Scientific, cat. 35050061), 0.1 mg/mL primocin (InvivoGen, cat. ant-pm-2), 10% defined fetal bovine serum, heat inactivated (HyClone Laboratories Inc., cat. SH30070.03HI), 1.25 mM N-Acetyl-L-cysteine (Sigma-Aldrich, cat. A9165), 10 mM nicotinamide (Sigma-Aldrich, cat. N0636), 1X B-27 supplement (Thermo Fisher Scientific, cat. 17504044), 1X N-2 supplement (Thermo Fisher Scientific, cat. 17502048), and 10 microM Y-27632 dihydrochloride (Tocris Bioscience, cat. 1254). The 876862-298-R-J1-PDC was cultured in 6E media, which includes all 6B/Colon 1A media components plus 50% L-WRN conditioned media (ATCC, cat. CRL-3276), 50 ng/mL recombinant human EGF recombinant protein (hEGF; Thermo Fisher Scientific, cat. PHG0311), 10 ng/mL recombinant human fibroblast growth factor 10 (hGFG-10; PeproTech, cat. 100-26), 1 ng/mL recombinant human fibroblast growth factor 2 (hFGF-2; PeproTech, cat. 100-18B), and 1 µM prostaglandin E2 (PGE2; Tocris, cat. 2296). The 227483-062-R1-J1-PDC line was cultured in Panc media, containing all 6E components except hFGF-2, with the addition of 500 nM SB-431542 (Selleckchem, cat. S1067) and 10 nM gastrin (Tocris, cat. 3006). […]
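Further: spheroids exposed to agents for seven days before readout.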

Work on `CCc1c2c(nc3ccc(O)cc13)-c1cc3c(c(=O)n1C2)COC(=O)[C@]3(O)CC` + CNC(=O)c1ccc(Nc2nc(OC3CCCC3)c3c(-c4ccc5nc(C)oc5c4)c[nH]c3n2)c(OC)c1 yielded an IC50 (second compound 0.0316 µM) of less than 3.16 nM, an IC50 (second compound 0.1 µM) of less than 3.16 nM and an IC50 (second compound 0.316 µM) of less than 3.16 nM. The IC50 (second compound 1 µM) was less than 3.16 nM, the IC50 (second compound 3.16 µM) was less than 3.16 nM and the IC50 (second compound 10 µM) was less than 3.16 nM. It also gave a viability, T/C (second compound 0.0316 µM, first compound 0.00316 µM) of 45.6%, a viability, T/C (second compound 0.0316 µM, first compound 0.01 µM) of 46.4% and a viability, T/C (second compound 0.0316 µM, first compound 0.0316 µM) of 51%. It also gave a viability, T/C (second compound 0.0316 µM, first compound 0.1 µM) of 46.5%, a viability, T/C (second compound 0.0316 µM, first compound 0.316 µM) of 42.7% and a viability, T/C (second compound 0.0316 µM, first compound 1 µM) of 16.4%. For the same compound, the viability, T/C (second compound 0.1 µM, first compound 0.00316 µM) was 49.1%, the viability, T/C (second compound 0.1 µM, first compound 0.01 µM) was 43.8% and the viability, T/C (second compound 0.1 µM, first compound 0.0316 µM) was 40.2%. For the same compound, the viability, T/C (second compound 0.1 µM, first compound 0.1 µM) was 38%, the viability, T/C (second compound 0.1 µM, first compound 0.316 µM) was 40% and the viability, T/C (second compound 0.1 µM, first compound 1 µM) was 19.6%. The viability, T/C (second compound 0.316 µM, first compound 0.00316 µM) was 42.3%, the viability, T/C (second compound 0.316 µM, first compound 0.01 µM) was 33.2% and the viability, T/C (second compound 0.316 µM, first compound 0.0316 µM) was 30.9%. It also gave a viability, T/C (second compound 0.316 µM, first compound 0.1 µM) of 38.5%, a viability, T/C (second compound 0.316 µM, first compound 0.316 µM) of 27.6% and a viability, T/C (second compound 0.316 µM, first compound 1 µM) of 24.5%. For the same compound, the viability, T/C (second compound 1 µM, first compound 0.00316 µM) was 46.8%, the viability, T/C (second compound 1 µM, first compound 0.01 µM) was 28.1% and the viability, T/C (second compound 1 µM, first compound 0.0316 µM) was 38.2%. For the same compound, the viability, T/C (second compound 1 µM, first compound 0.1 µM) was 42.4%, the viability, T/C (second compound 1 µM, first compound 0.316 µM) was 20.8% and the viability, T/C (second compound 1 µM, first compound 1 µM) was 25.8%. It also gave a viability, T/C (second compound 3.16 µM, first compound 0.00316 µM) of 41.9%, a viability, T/C (second compound 3.16 µM, first compound 0.01 µM) of 38.7% and a viability, T/C (second compound 3.16 µM, first compound 0.0316 µM) of 33%. The viability, T/C (second compound 3.16 µM, first compound 0.1 µM) was 39.8%, the viability, T/C (second compound 3.16 µM, first compound 0.316 µM) was 22.6% and the viability, T/C (second compound 3.16 µM, first compound 1 µM) was 23.3%. The viability, T/C (second compound 10 µM, first compound 0.00316 µM) was 31.2%, the viability, T/C (second compound 10 µM, first compound 0.01 µM) was 27.5% and the viability, T/C (second compound 10 µM, first compound 0.0316 µM) was 38.4%. It also gave a viability, T/C (second compound 10 µM, first compound 0.1 µM) of 32.7%, a viability, T/C (second compound 10 µM, first compound 0.316 µM) of 23.7% and a viability, T/C (second compound 10 µM, first compound 1 µM) of 28.7%.

— PubChem BioAssay AID2060603 (Molecular Pharmacology Branch, DTP, NCI, 2025)
